Laboratory results reported in the supplement of paper PMC10307832.

The cell lines below were run with CC1=CC(=CC=C1)NC2=NC(=CS2)C3=CC=NC=C3 + O=C(c1cc(Cc2n[nH]c(=O)c3ccccc23)ccc1F)N1CCN(C(=O)C2CC2)CC1 [Olaparib] (partner 8 µM) (assay: relative viability (nuclei count vs DMSO), 5 days (fraction); higher = more cells survive). Conditions: first compound 8 µM.
Outline: (§1)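 Lung cancer cell lines, seeded in 1536-well plates, were treated the following day by pin tool with a single drug or with five library-drug doses (not always all listed) in √10 steps on top of a fixed anchor-drug dose. Cells were fixed and nuclei stained in one step after 5 days, and nuclei were counted. Relative viability is the nuclei count for treated wells divided by that for vehicle wells, reported as medians of duplicate plates.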
Cell Line RERF-LC-KJ has a relative viability of 0.163.

What follows are cell lines tested with Cc1ccc(NC(=O)c2ccc(CN3CCN(C)CC3)cc2)cc1Nc1nc(-c2cccnc2)cs1 [Masitinib] + Nc1ncn([C@H]2C[C@H](O)[C@@H](CO)O2)c(=O)n1 [Decitabine] (partner 2 µM) in the same assay as above. Conditions: first compound 0.01 µM.
Outline: as §1
With NCI-H1395 the relative viability was 0.734.
In the case of 201T, the relative viability is reported as 0.762.
Work on NCI-H1975 yielded a relative viability of 0.324.
HCC-827 was tested, and the relative viability was 0.296.
With NCI-H2347 the relative viability was 0.598.
NCI-H1355 was tested, and the relative viability was 0.351.
Cell Line NCI-H650 has a relative viability of 0.307.
NCI-H1666 was tested, and the relative viability was 0.698.
In the case of EPLC-272H, the relative viability is reported as 0.369.
With NCI-H23 the relative viability was 0.312.
NCI-H1437 showed a relative viability of 0.559.
NCI-H322M gave a relative viability of 0.626.
NCI-H1792 showed a relative viability of 0.621.
Cell Line NCI-H2085 has a relative viability of 0.55.
Work on HCC-15 yielded a relative viability of 0.58.
PC-3 [JPC-3] showed a relative viability of 0.828.
In the case of EKVX, the relative viability is reported as 0.342.
In the case of LC-2-ad, the relative viability is reported as 0.837.
NCI-H2170 showed a relative viability of 0.467.
NCI-H1993 gave a relative viability of 0.49.
ABC-1 was tested, and the relative viability was 1.02.
RERF-LC-KJ was tested, and the relative viability was 0.631.

Same assay, conditions: first compound 0.03162 µM
Work on NCI-H1395 yielded a relative viability of 0.705.
201T gave a relative viability of 0.861.
NCI-H1975 was tested, and the relative viability was 0.417.
HCC-827 gave a relative viability of 0.342.
With NCI-H2347 the relative viability was 0.529.
Work on NCI-H1355 yielded a relative viability of 0.345.
NCI-H650 was tested, and the relative viability was 0.343.
Work on NCI-H1666 yielded a relative viability of 0.665.
Work on EPLC-272H yielded a relative viability of 0.344.
With NCI-H23 the relative viability was 0.346.
NCI-H1915 gave a relative viability of 0.239.
For NCI-H1437, the relative viability was 0.565.
NCI-H322M gave a relative viability of 0.733.
Work on NCI-H1792 yielded a relative viability of 0.443.
Work on NCI-H2085 yielded a relative viability of 0.522.
HCC-15 was tested, and the relative viability was 0.546.
With NCI-H1944 the relative viability was 0.398.
PC-3 [JPC-3] gave a relative viability of 0.771.
EKVX was tested, and the relative viability was 0.31.
For LC-2-ad, the relative viability was 0.795.
Cell Line NCI-H2170 has a relative viability of 0.473.
With NCI-H1993 the relative viability was 0.545.
Cell Line ABC-1 has a relative viability of 1.14.
With RERF-LC-KJ the relative viability was 0.71.

Same assay, conditions: first compound 0.1 µM
NCI-H1395 showed a relative viability of 0.694.
For 201T, the relative viability was 0.848.
NCI-H1975 gave a relative viability of 0.381.
In the case of HCC-827, the relative viability is reported as 0.295.
NCI-H2347 gave a relative viability of 0.614.
NCI-H1355 showed a relative viability of 0.393.
NCI-H650 showed a relative viability of 0.308.
NCI-H1666 gave a relative viability of 0.703.
For EPLC-272H, the relative viability was 0.358.
With NCI-H23 the relative viability was 0.341.
Cell Line NCI-H1437 has a relative viability of 0.582.
NCI-H322M gave a relative viability of 0.612.
With NCI-H1792 the relative viability was 0.51.
For NCI-H2085, the relative viability was 0.511.
With HCC-15 the relative viability was 0.659.
In the case of PC-3 [JPC-3], the relative viability is reported as 0.824.
EKVX was tested, and the relative viability was 0.35.
LC-2-ad showed a relative viability of 0.85.
In the case of NCI-H2170, the relative viability is reported as 0.509.
NCI-H1993 was tested, and the relative viability was 0.534.
In the case of ABC-1, the relative viability is reported as 1.24.
RERF-LC-KJ was tested, and the relative viability was 0.743.

Same assay, conditions: first compound 0.3162 µM
NCI-H1395 showed a relative viability of 0.703.
Work on 201T yielded a relative viability of 0.921.
NCI-H1975 showed a relative viability of 0.293.
With HCC-827 the relative viability was 0.27.
NCI-H2347 was tested, and the relative viability was 0.669.
Cell Line NCI-H1355 has a relative viability of 0.341.
NCI-H650 showed a relative viability of 0.298.
NCI-H1666 was tested, and the relative viability was 0.626.
In the case of EPLC-272H, the relative viability is reported as 0.388.
NCI-H23 gave a relative viability of 0.274.
For NCI-H1915, the relative viability was 0.241.
NCI-H1437 was tested, and the relative viability was 0.524.
Cell Line NCI-H322M has a relative viability of 0.719.
In the case of NCI-H1792, the relative viability is reported as 0.438.
With NCI-H2085 the relative viability was 0.536.
In the case of HCC-15, the relative viability is reported as 0.582.
NCI-H1944 showed a relative viability of 0.423.
PC-3 [JPC-3] gave a relative viability of 0.819.
In the case of LC-2-ad, the relative viability is reported as 0.795.
NCI-H2170 was tested, and the relative viability was 0.488.
For NCI-H1993, the relative viability was 0.459.
Cell Line ABC-1 has a relative viability of 1.06.
With RERF-LC-KJ the relative viability was 0.762.

Same assay, conditions: first compound 1 µM
For NCI-H1395, the relative viability was 0.62.
201T was tested, and the relative viability was 0.881.
NCI-H1975 showed a relative viability of 0.34.
HCC-827 gave a relative viability of 0.312.
With NCI-H2347 the relative viability was 0.652.
For NCI-H1355, the relative viability was 0.367.
Cell Line NCI-H650 has a relative viability of 0.36.
Cell Line NCI-H1666 has a relative viability of 0.647.
With EPLC-272H the relative viability was 0.313.
NCI-H23 gave a relative viability of 0.262.
Cell Line NCI-H1915 has a relative viability of 0.246.
NCI-H1437 showed a relative viability of 0.527.
NCI-H322M was tested, and the relative viability was 0.706.
NCI-H1792 showed a relative viability of 0.472.
In the case of NCI-H2085, the relative viability is reported as 0.509.
Work on HCC-15 yielded a relative viability of 0.638.
Work on NCI-H1944 yielded a relative viability of 0.384.
Work on PC-3 [JPC-3] yielded a relative viability of 0.785.
Work on EKVX yielded a relative viability of 0.541.
Cell Line LC-2-ad has a relative viability of 0.894.
With NCI-H2170 the relative viability was 0.449.
NCI-H1993 gave a relative viability of 0.496.
Work on ABC-1 yielded a relative viability of 0.865.
For RERF-LC-KJ, the relative viability was 0.618.
